These results are taken from ChEMBL document CHEMBL5715954, “Silencing c-Myc translation as a therapeutic strategy through targeting PI3Kδ and CK1ε in hematological malignancies” (Blood, 2017).

Each structure is given as a SMILES string.

What all share (design): scale not given: the % may be the effect or the level left
Assay [1] concerns the target Casein kinase II subunit alpha (Homo sapiens) (UniProt P68400). Description: Inhibition of human CK2a assessed as enzyme activity at 1 uM using RRRDDDSDDD as substrate preincubated for 20 mins followed by [gamma-33P]-ATP addition and measured after 120 mins by radiometric Hot-SpotSM Kinase assay relative to control.
The target of assay [2] is T1, Serine/threonine-protein kinase 17A (Homo sapiens) (UniProt Q9UEE5).
T1 sequence (whole entry): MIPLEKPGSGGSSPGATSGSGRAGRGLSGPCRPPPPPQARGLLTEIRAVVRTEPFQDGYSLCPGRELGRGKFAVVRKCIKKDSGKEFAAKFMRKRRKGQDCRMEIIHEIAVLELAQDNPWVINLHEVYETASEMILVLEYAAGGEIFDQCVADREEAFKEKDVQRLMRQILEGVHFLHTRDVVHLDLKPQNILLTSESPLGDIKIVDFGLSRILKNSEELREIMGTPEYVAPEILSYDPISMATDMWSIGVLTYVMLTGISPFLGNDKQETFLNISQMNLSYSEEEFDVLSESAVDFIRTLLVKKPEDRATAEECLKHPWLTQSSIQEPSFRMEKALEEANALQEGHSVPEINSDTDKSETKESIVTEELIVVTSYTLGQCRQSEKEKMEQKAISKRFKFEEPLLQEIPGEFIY
Description: Inhibition of human DRAK1/STK17A assessed as enzyme activity at 1 uM using KKLNRTLSFAEPG as substrate preincubated for 20 mins followed by [gamma-33P]-ATP addition and measured after 120 mins by radiometric Hot-SpotSM Kinase assay relative to control.

The target in assay [3] is Glycogen synthase kinase-3 alpha (Homo sapiens) (UniProt P49840). The experiment in a line: Inhibition of human GSK3a assessed as enzyme activity at 1 uM using YRRAAVPPSPSLSRHSSPHQ(pS)EDEEE as substrate preincubated for 20 mins followed by [gamma-33P]-ATP addition and measured after 120 mins by radiometric Hot-SpotSM Kinase assay relative to control.
Assay [4] concerns the target MAP/microtubule affinity-regulating kinase 3 (Homo sapiens) (UniProt P27448). The experiment in a line: Inhibition of human MARK3 assessed as enzyme activity at 1 uM using KKKVSRSGLYRSPSMPENLNRPR as substrate preincubated for 20 mins followed by [gamma-33P]-ATP addition and measured after 120 mins by radiometric Hot-SpotSM Kinase assay relative to control.
Assay [5] concerns the target T2, Serine/threonine-protein kinase Nek5 (Homo sapiens) (UniProt Q6P3R8).
T2 sequence (whole entry): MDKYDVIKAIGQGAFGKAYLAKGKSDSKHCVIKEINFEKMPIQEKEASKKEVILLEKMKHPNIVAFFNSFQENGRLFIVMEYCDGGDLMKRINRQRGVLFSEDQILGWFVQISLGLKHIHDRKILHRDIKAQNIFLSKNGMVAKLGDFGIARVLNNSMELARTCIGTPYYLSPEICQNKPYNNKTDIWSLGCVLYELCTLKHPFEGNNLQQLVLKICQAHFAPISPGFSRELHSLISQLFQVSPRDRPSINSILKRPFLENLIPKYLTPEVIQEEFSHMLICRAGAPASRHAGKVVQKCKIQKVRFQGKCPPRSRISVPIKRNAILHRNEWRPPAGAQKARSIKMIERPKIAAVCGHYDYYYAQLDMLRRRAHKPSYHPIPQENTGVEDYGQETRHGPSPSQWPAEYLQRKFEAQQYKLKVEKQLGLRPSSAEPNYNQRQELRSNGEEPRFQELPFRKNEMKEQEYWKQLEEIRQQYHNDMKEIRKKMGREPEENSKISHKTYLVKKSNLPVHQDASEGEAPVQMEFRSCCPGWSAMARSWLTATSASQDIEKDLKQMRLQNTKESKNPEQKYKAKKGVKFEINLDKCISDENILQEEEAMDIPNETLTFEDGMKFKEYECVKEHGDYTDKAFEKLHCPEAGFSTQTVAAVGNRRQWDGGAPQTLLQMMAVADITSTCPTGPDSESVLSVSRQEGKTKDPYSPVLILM
The experiment in a line: Inhibition of human NEK5 assessed as enzyme activity at 1 uM using myelin basic protein as substrate preincubated for 20 mins followed by [gamma-33P]-ATP addition and measured after 120 mins by radiometric Hot-SpotSM Kinase assay relative to control.

Assay [6] has as its target Serine/threonine-protein kinase Nek6 (Homo sapiens) (UniProt Q9HC98). Description: Inhibition of human NEK6 assessed as enzyme activity at 1 uM using casein as substrate preincubated for 20 mins followed by [gamma-33P]-ATP addition and measured after 120 mins by radiometric Hot-SpotSM Kinase assay relative to control.
Assay [7] has as its target Serine/threonine-protein kinase PAK 4 (Homo sapiens) (UniProt O96013). The experiment in a line: Inhibition of human PAK4 assessed as enzyme activity at 1 uM using RRRLSFAEPG as substrate preincubated for 20 mins followed by [gamma-33P]-ATP addition and measured after 120 mins by radiometric Hot-SpotSM Kinase assay relative to control.
The target of assay [8] is PAS domain-containing serine/threonine-protein kinase (Homo sapiens) (UniProt Q96RG2). The experiment in a line: Inhibition of human PASK assessed as enzyme activity at 1 uM using KKLNRTLSFAEPG as substrate preincubated for 20 mins followed by [gamma-33P]-ATP addition and measured after 120 mins by radiometric Hot-SpotSM Kinase assay relative to control.
Assay [9] concerns the target Platelet-derived growth factor receptor alpha (Homo sapiens) (UniProt P16234). Description: Inhibition of human PDGFRa assessed as enzyme activity at 1 uM using poly[Glu:Tyr] (4:1) as substrate preincubated for 20 mins followed by [gamma-33P]-ATP addition and measured after 120 mins by radiometric Hot-SpotSM Kinase assay relative to control.

Sequence of Serine/threonine-protein kinase PAK 4 (Homo sapiens) (O96013 whole entry, looked up, the tested form may be a part): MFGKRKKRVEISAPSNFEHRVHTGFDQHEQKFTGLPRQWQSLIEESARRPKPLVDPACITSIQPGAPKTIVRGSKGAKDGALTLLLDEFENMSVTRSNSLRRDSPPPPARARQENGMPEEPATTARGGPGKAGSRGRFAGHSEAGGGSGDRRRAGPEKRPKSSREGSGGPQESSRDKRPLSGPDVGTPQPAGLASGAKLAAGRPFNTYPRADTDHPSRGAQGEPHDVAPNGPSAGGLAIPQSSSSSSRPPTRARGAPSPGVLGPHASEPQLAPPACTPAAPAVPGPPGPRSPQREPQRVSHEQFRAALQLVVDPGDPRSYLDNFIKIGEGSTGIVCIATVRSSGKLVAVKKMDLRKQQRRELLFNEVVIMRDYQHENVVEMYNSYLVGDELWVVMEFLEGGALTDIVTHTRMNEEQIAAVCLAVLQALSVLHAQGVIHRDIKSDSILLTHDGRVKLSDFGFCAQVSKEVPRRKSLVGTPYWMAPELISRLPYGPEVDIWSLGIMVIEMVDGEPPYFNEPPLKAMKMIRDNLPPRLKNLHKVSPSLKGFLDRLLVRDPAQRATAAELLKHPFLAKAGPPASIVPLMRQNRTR
Sequence of Serine/threonine-protein kinase Nek6 (Homo sapiens) (Q9HC98 whole entry): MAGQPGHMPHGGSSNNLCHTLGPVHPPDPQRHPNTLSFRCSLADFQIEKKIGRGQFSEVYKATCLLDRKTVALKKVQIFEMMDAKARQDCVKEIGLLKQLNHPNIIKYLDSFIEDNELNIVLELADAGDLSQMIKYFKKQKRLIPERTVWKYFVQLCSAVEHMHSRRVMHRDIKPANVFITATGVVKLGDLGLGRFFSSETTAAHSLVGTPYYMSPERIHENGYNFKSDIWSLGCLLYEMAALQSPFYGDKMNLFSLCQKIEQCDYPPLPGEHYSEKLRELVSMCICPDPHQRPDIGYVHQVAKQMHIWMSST
Sequence of PAS domain-containing serine/threonine-protein kinase (Homo sapiens) (Q96RG2 whole entry, the tested form may be a part): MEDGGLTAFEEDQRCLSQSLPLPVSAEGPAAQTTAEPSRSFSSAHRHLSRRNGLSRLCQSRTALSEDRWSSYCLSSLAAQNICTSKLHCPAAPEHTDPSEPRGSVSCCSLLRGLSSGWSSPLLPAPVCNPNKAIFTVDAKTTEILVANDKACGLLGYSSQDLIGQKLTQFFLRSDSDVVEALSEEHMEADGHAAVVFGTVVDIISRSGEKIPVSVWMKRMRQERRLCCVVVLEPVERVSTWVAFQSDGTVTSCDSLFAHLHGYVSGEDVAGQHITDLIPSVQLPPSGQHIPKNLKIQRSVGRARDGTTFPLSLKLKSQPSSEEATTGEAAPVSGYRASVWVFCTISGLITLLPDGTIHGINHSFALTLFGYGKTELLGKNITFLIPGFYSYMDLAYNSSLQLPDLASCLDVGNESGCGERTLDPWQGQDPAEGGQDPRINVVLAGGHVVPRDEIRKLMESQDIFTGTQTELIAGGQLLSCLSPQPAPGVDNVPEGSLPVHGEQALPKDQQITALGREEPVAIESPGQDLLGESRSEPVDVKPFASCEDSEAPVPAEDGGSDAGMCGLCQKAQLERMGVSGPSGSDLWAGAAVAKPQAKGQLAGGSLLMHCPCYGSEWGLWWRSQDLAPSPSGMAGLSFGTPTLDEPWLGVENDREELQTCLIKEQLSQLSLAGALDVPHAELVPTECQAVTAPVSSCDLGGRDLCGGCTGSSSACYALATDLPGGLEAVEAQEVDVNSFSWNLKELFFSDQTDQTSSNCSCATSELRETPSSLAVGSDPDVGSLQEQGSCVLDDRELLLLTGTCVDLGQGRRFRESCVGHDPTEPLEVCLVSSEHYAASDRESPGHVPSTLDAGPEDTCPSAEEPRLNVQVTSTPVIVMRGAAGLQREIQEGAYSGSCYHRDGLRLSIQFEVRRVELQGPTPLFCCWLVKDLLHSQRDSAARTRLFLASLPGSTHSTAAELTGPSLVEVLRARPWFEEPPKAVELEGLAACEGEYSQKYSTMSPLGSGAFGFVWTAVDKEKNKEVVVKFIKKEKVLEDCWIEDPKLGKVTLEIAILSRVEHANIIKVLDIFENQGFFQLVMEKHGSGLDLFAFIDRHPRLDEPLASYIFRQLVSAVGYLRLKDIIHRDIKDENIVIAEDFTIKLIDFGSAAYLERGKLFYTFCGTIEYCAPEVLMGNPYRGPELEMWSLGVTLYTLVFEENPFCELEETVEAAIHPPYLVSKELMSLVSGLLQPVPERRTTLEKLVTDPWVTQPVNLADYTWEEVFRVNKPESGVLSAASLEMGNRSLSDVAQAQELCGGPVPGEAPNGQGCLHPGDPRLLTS
Sequence of Platelet-derived growth factor receptor alpha (Homo sapiens) (P16234 whole entry): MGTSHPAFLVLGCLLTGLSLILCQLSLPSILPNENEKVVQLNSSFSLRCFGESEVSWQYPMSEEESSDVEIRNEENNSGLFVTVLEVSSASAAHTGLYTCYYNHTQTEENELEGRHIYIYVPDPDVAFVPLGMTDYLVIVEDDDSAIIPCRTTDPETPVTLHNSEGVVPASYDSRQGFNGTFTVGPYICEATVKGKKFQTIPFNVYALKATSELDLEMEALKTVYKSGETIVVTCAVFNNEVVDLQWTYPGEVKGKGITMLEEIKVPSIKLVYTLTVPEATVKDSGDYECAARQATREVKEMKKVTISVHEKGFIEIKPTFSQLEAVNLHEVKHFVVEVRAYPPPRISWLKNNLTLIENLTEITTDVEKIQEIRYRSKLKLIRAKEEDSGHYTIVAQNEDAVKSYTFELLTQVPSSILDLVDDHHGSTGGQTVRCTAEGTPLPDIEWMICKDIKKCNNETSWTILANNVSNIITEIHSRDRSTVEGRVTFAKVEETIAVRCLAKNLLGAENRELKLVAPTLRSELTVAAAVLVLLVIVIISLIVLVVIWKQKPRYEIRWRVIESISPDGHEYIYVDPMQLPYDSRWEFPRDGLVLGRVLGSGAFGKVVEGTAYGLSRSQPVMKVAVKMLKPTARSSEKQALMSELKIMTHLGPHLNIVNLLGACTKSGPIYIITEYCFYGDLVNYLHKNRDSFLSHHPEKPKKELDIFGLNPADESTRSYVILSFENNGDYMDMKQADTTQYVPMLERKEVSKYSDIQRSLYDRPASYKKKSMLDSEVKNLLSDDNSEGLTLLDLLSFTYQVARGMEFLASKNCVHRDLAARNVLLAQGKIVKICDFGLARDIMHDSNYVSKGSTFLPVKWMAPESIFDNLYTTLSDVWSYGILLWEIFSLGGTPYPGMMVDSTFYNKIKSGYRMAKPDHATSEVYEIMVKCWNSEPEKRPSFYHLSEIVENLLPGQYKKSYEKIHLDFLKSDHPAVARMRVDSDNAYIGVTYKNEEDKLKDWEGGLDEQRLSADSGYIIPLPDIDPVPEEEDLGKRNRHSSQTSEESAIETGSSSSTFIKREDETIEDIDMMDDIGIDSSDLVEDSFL
Sequence of Glycogen synthase kinase-3 alpha (Homo sapiens) (P49840 2-483 limits assumed): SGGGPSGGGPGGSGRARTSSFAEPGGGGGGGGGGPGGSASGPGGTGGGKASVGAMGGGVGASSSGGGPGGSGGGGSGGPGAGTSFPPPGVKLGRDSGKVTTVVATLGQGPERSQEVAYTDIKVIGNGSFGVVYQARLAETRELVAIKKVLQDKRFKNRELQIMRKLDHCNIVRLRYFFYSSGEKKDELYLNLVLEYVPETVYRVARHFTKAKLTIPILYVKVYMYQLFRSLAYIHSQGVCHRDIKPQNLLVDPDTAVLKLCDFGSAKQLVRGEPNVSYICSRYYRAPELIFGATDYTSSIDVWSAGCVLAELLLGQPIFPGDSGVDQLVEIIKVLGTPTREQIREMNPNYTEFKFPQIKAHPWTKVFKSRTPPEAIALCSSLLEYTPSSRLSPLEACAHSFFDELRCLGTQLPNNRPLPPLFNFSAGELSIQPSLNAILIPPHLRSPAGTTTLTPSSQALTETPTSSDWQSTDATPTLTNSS
Sequence of Casein kinase II subunit alpha (Homo sapiens) (P68400 whole entry, looked up): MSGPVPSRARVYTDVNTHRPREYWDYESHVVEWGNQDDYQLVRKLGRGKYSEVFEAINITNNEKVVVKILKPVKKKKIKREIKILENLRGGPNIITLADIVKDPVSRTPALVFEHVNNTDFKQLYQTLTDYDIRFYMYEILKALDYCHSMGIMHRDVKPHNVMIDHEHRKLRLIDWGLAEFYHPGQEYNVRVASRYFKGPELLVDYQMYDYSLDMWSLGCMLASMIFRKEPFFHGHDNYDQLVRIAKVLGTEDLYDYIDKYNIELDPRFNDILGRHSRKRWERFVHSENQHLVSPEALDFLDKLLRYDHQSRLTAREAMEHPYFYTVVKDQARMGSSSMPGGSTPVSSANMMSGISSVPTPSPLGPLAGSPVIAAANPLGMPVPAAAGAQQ
Sequence of MAP/microtubule affinity-regulating kinase 3 (Homo sapiens) (P27448 whole entry, looked up): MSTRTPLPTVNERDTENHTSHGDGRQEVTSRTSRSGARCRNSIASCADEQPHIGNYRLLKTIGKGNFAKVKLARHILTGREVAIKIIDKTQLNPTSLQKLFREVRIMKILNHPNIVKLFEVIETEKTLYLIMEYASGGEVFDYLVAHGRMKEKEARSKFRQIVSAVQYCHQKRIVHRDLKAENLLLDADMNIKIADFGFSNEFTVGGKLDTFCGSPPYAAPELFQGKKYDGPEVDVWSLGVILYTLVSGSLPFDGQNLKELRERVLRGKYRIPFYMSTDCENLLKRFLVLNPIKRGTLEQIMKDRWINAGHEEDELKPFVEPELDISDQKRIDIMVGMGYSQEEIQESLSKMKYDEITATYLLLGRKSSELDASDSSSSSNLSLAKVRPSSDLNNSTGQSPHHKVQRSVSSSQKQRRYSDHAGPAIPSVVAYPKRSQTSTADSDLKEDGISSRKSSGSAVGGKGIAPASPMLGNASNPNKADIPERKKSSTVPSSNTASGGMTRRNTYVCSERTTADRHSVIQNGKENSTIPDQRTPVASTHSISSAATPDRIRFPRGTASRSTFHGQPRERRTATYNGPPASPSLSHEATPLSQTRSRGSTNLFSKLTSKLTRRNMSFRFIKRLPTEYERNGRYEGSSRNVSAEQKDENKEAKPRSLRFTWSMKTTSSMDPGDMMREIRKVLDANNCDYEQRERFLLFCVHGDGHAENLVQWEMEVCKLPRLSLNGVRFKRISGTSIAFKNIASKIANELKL

For `C[C@H](Nc1ncnc2nc[nH]c12)c1cc2cccc(Cl)c2c(=O)n1-c1ccccc1`, the Activity in assay [1] amounted to 83.6%; in assay [2], 95.4%; in assay [3], 95.3%; in assay [4], 137%; in assay [5], 92.8%; in assay [6] it was 92.6%. Moreover, the Activity in [7] stood at 107%; in assay [8] it was 95.3%; in assay [9], 90.1%.
For the molecule `CC[C@H](Nc1ncnc2[nH]cnc12)c1nc2cccc(F)c2c(=O)n1-c1ccccc1`, the Activity came to 96% in [1]; 95.1% in assay [2]; 93.7% in assay [3]; 130% in assay [4]; 111% in assay [5]; 93.2% in assay [6]. In addition, the Activity in assay [7] worked out at 95.9%; in assay [8], 99.6%; in [9], 93.8%.
On to `CC(C)Oc1ccc(-c2nn([C@@H](C)c3oc4ccc(F)cc4c(=O)c3-c3cccc(F)c3)c3ncnc(N)c23)cc1F` [UMBRALISIB], for which the Activity in assay [1] came to 78.2%; in [2], 92.4%; in assay [3] it was 104%; in assay [4], 100%; in [5], 110%; in assay [6] it was 97.7%. Also, the Activity in assay [7] worked out at 99.1%; in assay [8], 98.7%; in [9] it was 100%.
